Patent publication US8283348B2, “1-benzyl-3-hydroxymethylindazole derivatives and use thereof in the treatment of diseases based on the expression of MCP-1, CX3CR1 and p40” (Aziende Chimiche Riunite Angelini Francesco A.C.R.A.F. …, priority 2008, dated 2012)

Experiments:
[1] = tested on: MCP-1; assay: Production of MCP-1 protein by LPS-stimulated MonoMac6 cells (ELISA); assay type: cell-based; details: Homo sapiens, MONO-MAC-6, MCP-1 protein in supernatant (ELISA), LPS 100 ng/ml 20 h; for inhibition at 30 µM: MonoMac6, compound 30 μM (maximum soluble concentration); for inhibition at 300 µM: MonoMac6, compound 300 μM (maximum soluble concentration); for inhibition at 75 µM: MonoMac6, compound 75 μM (maximum soluble concentration); for inhibition at 150 µM: MonoMac6, compound 150 μM (maximum soluble concentration)
Procedure: (§1) The capacity of the compounds to inhibit the expression of the protein MCP-1 by lipopolysaccharide (LPS)-stimulated MonoMac6 cells was evaluated. The cells were placed in 96-well plates at a concentration of 50 000 cells/well. The compounds were tested at the maximum soluble concentration given in Table 2 (in the range 30-300 μM) and incubated for 1 hour. The cells were then stimulated with LPS (100 ng/ml) for 20 hours.
The amount of MCP-1 produced was measured in the supernatants, suitably diluted with buffer, by means of an immunoenzymatic test (ELISA) using a commercial kit (ELISA MCP-1/JE, R&D Systems).
The results obtained, expressed as a percentage of inhibition, are collated in Table 2 below.

[2] = tested on: human CX3CR1; assay: Gene expression of CX3CR1 in LPS-stimulated MonoMac6 cells (real-time RT-PCR); assay type: cell-based; details: MONO-MAC-6, CX3CR1 mRNA, LPS 100 ng/ml 20 h; for inhibition at 300 µM: MonoMac6, compound 300 μM (maximum soluble concentration); for inhibition at 75 µM: MonoMac6, compound 75 μM (maximum soluble concentration); for inhibition at 150 µM: MonoMac6, compound 150 μM (maximum soluble concentration)
Procedure: The capacity of the compounds to inhibit the expression of CX3CR1 by lipopolysaccharide (LPS)-stimulated MonoMac6 cells was evaluated. The cells were placed in 96-well plates at a concentration of 50 000 cells/well. The compounds were tested at the maximum soluble concentration given in Table 3 (in the range 30-300 μM) and incubated for 1 hour. The cells were then stimulated with LPS (100 ng/ml) for 20 hours. The total RNA was extracted from the cell pellet using the RNeasy mini kit (Qiagen), reverse-transcribed with the TaqMan Reverse transcription reagents synthesis kit (Applied Biosystems) and the cDNA obtained was used for the real-time PCR reaction. The amplification was obtained in 96-well plates using the ABI Prism 7000 sequence detection system (Applied Biosystems), by applying the following temperature profile: 50° C. for 2 minutes, 95° C. for 10 minutes and 45 cycles at 95° C. for 15 seconds and 60° C. for 1 minute. For the amplification, a set of primers and probe specific for human CX3CR1 was used (Applied Biosystems, RefSeq NM_001337.3). A set of primers and probe for β-actin was used in separate wells as an internal control of the samples for the purposes of normalization. Once the reaction had taken place, the fluorescence data were analysed using the ABI Prism 7000 SDS software, by calculating the threshold cycle (Ct) for each sample and subsequently performing a relative quantification via the ΔΔCt method. The results obtained, expressed as a percentage of inhibition, are collated in Table 3 below.

[3] = tested on: human p40; assay: Gene expression of p40 in LPS-stimulated MonoMac6 cells (real-time RT-PCR); assay type: cell-based; details: MONO-MAC-6, p40 mRNA, LPS 100 ng/ml 4 h; for inhibition at 75 µM: MonoMac6, compound 75 μM (maximum soluble concentration); for inhibition at 150 µM: MonoMac6, compound 150 μM (maximum soluble concentration)
Procedure: as §1, with “p40” for “the protein MCP-1”, “4” for “2”, “4” for “20”
(§2) The total RNA was extracted from the cell pellet using the RNeasy mini kit (Qiagen), reverse-transcribed with the TaqMan Reverse transcription reagents synthesis kit (Applied Biosystems) and the cDNA obtained was used for the real-time PCR reaction. The amplification was obtained in 96-well plates using the ABI Prism 7000 sequence detection system (Applied Biosystems), by applying the following temperature profile: 50° C. for 2 minutes, 95° C. for 10 minutes and 45 cycles at 95° C. for 15 seconds and 60° C. for 1 minute. For the amplification, a set of primers and probe specific for human p40 was used (Applied Biosystems, RefSeq NM_002187.2). A set of primers and probe for β-actin was used in separate wells as an internal control of the samples for the purposes of normalization. Once the reaction had taken place, the fluorescence data were analysed using the ABI Prism 7000 SDS software, by calculating the threshold cycle (Ct) for each sample and subsequently performing a relative quantification via the ΔΔCt method.
The results obtained, expressed as a percentage of inhibition, are collated in Table 4 below.

[4] = tested on: human MCP-1; assay: Gene expression of MCP-1 in LPS-stimulated MonoMac6 cells (real-time RT-PCR); assay type: cell-based; details: MONO-MAC-6, MCP-1 mRNA, 1 h preincubation, LPS 100 ng/ml 4 h; for inhibition at 300 µM: MonoMac6, compound 300 μM (maximum soluble concentration); for inhibition at 75 µM: MonoMac6, compound 75 μM (maximum soluble concentration); for inhibition at 150 µM: MonoMac6, compound 150 μM (maximum soluble concentration)
Procedure: as §1, with “of” for “of the protein”, “1” for “2”, “4” for “20”
as §2, with “MCP-1” for “p40”, “NM_002982.3).” for “NM_002187.2).”
The results obtained, expressed as a percentage of inhibition, are collated in Table 1 below.

[5] = MonoMac6, compound 30 μM (maximum soluble concentration)

Compound `CC(C)(OCc1nn(Cc2ccccc2)c2ccccc12)C(=O)NNc1ccccc1` [Compound 27, 2-[(1-benzyl-1H-indazol-3-yl)methoxy]-2-methyl-N′-phenylpropanohydrazide] has a melting point of 124 to 125 °C and an inhibition at 30 µM [1] of 82%.
`CC(C)(OCc1nn(Cc2ccccc2)c2ccccc12)C(N)=O` [Compound 9, 2-[(1-benzyl-1H-indazol-3-yl)methoxy]-2-methylpropanamide] gave an inhibition at 300 µM [2] of 99%, an inhibition at 300 µM ([3]; MonoMac6, compound 300 μM (maximum soluble concentration)) of 96% and a melting point of 111 to 112 °C. It also gave an inhibition at 300 µM [1] of 98% and an inhibition at 300 µM [4] of 99%.
`CC(C)(OCc1nn(Cc2ccccc2)c2ccccc12)C(=O)NNC(N)=O` [Compound 12, 2-{2-[(1-benzyl-1H-indazol-3-yl)methoxy]-2-methylpropanoyl}hydrazinecarboxamide] gave an inhibition at 300 µM [2] of 83%, an inhibition at 300 µM [1] of 48% and an inhibition at 300 µM [4] of 20%.
In the case of `CC(C)(OCc1nn(Cc2ccccc2)c2ccccc12)C(=O)Nc1ccccn1` [Compound 14, 2-[(1-benzyl-1H-indazol-3-yl)methoxy]-2-methyl-N-pyrid-2-ylpropanamide], the inhibition at 30 µM [2, 5] is reported as 44%, the inhibition at 30 µM [3, 5] is reported as 27% and the melting point is reported as 121 to 122 °C. The inhibition at 30 µM [1] was 70% and the inhibition at 30 µM [4, 5] was 49%.
With `CN(C)CCNC(=O)C(C)(C)OCc1nn(Cc2ccccc2)c2ccccc12.Cl` [Compound 13, 2-[(1-benzyl-1H-indazol-3-yl)methoxy]-N-[2-(dimethylamino)ethyl]-2-methylpropanamide hydrochloride] the inhibition at 75 µM [2] was 100%, the inhibition at 75 µM [3] was 59% and the melting point was 136 to 137 °C. It also gave an inhibition at 75 µM [1] of 74% and an inhibition at 75 µM [4] of 72%.
For `CC(C)(OCc1nn(Cc2ccccc2)c2ccccc12)C(=O)NO` [Compound 10, 2-[(1-benzyl-1H-indazol-3-yl)methoxy]-N-hydroxy-2-methylpropanamide], the inhibition at 150 µM [2] was 95%, the inhibition at 150 µM [3] was 54% and the melting point was 115 to 116 °C. It also gave an inhibition at 150 µM [1] of 91% and an inhibition at 150 µM [4] of 61%.
With `CN1CCN(C(=O)C(C)(C)OCc2nn(Cc3ccccc3)c3ccccc23)CC1` [Compound 15, 1-benzyl-3-{[1,1-dimethyl-2-(4-methylpiperazin-1-yl)-2-oxoethoxy]methyl}-1H-indazole] the inhibition at 75 µM [2] was 89%, the inhibition at 75 µM [3] was 33% and the melting point was 97 to 98 °C. For the same compound, the inhibition at 75 µM [1] was 59% and the inhibition at 75 µM [4] was 40%.
`CC(C)(OCc1nn(Cc2ccccc2)c2ccccc12)C(=O)NN` [Compound 11, 2-[(1-benzyl-1H-indazol-3-yl)methoxy]-2-methylpropanohydrazide] gave an inhibition at 150 µM [2] of 90%, an inhibition at 150 µM [3] of 44% and a melting point of 92 to 93 °C. It also gave an inhibition at 150 µM [1] of 79% and an inhibition at 150 µM [4] of 68%.
